Results taken from ChEMBL document CHEMBL4152224, “The Identification of Potent, Selective, and Orally Available Inhibitors of Ataxia Telangiectasia Mutated (ATM) Kinase: The Discovery of AZD0156 (8-{6-[3-(Dimethylamino)propoxy]pyridin-3-yl}-3-methyl-1-(tetrahydro-2 H-pyran-4-yl)-1,3-dihydro-2 H-imidazo[4,5- c]quinolin-2-one)” (J Med Chem, 2018).
Converted amounts (≈) assume the structure as drawn.

What was measured:
[1] = Volume of distribution at steady state in dog; format: ADME, organism-based, Canis lupus familiaris; settings: in vivo, read-out: Vdss
[2] = Apparent permeability across apical to basolateral side in MDCK cells overexpressing MDR1; format: ADME, cell-based, Canis lupus familiaris; settings: dog
[3] = Dissociation constant, pKa of the compound; format: physicochemical
in vitro = settings: dog, MDCK-MDR1
Description: Efflux ratio of apparent permeability across basolateral to apical over apical to basolateral side in MDCK cells overexpressing MDR1

[4] = molecular target: Voltage-gated inwardly rectifying potassium channel KCNH2 (Homo sapiens, UniProt Q12809); test: Inhibition of human ERG by electrophysiology assay
Sequence of Voltage-gated inwardly rectifying potassium channel KCNH2 (Q12809 whole entry): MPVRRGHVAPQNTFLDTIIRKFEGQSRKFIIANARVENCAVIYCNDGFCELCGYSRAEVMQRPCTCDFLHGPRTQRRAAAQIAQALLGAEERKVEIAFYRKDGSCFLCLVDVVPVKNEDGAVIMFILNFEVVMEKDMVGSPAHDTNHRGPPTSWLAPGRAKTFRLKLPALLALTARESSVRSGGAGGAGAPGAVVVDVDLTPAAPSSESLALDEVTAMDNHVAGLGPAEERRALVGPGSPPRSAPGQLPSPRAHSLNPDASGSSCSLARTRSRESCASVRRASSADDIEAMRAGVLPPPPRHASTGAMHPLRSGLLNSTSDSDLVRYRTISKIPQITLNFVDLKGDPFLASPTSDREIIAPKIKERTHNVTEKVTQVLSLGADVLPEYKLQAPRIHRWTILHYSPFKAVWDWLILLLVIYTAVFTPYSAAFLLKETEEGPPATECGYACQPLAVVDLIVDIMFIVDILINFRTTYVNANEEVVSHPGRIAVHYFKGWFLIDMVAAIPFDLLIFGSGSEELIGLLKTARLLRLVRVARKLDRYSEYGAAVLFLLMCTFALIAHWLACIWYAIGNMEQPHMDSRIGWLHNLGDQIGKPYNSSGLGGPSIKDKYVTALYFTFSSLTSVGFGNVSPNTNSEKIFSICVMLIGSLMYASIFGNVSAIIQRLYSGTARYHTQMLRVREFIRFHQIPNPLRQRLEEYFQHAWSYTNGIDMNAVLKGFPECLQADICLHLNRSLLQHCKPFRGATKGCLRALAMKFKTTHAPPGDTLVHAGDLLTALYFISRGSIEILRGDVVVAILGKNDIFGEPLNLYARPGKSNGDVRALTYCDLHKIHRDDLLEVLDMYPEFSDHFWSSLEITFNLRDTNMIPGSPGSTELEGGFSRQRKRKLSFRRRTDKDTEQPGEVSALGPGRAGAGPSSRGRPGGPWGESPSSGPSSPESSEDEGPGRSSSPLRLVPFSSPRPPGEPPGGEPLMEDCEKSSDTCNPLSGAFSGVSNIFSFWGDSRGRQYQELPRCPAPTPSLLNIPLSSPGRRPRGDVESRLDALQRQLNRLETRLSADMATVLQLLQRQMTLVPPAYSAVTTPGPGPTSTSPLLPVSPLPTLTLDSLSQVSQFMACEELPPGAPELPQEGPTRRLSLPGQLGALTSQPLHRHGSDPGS

[5] = Thermodynamic solubility of the compound in 0.1M aqueous phosphate buffer at pH 7.4 after 24 hrs by LC-UV analysis; format: physicochemical; settings: read-out: Therm_solubility
in vivo [6] = settings: dog
[7] = Intrinsic clearance in rat hepatocytes assessed per million cells
[8] = Intrinsic clearance in human hepatocytes assessed per million cells
[9] = Oral bioavailability in dog; format: ADME, organism-based, Canis lupus familiaris; settings: in vivo
in vivo [10] = settings: dog; remark: listed apart in the source
in vivo [11] = settings: rat
[12] = Oral bioavailability in rat; format: ADME, organism-based; settings: in vivo
[13] = Volume of distribution at steady state in rat; format: ADME, organism-based; settings: in vivo, read-out: Vdss
[14] = Buffer/octanol partition coefficient, log D of the compound at pH 7.4 by shake flask method; format: physicochemical
[15] = molecular target: Serine/threonine-protein kinase ATR (Homo sapiens, UniProt Q13535)
in vivo [16] = settings: rat; remark: listed apart in the source
[17] = molecular target: Serine-protein kinase ATM (Homo sapiens, UniProt Q13315)
Sequence of Serine-protein kinase ATM (Q13315 whole entry): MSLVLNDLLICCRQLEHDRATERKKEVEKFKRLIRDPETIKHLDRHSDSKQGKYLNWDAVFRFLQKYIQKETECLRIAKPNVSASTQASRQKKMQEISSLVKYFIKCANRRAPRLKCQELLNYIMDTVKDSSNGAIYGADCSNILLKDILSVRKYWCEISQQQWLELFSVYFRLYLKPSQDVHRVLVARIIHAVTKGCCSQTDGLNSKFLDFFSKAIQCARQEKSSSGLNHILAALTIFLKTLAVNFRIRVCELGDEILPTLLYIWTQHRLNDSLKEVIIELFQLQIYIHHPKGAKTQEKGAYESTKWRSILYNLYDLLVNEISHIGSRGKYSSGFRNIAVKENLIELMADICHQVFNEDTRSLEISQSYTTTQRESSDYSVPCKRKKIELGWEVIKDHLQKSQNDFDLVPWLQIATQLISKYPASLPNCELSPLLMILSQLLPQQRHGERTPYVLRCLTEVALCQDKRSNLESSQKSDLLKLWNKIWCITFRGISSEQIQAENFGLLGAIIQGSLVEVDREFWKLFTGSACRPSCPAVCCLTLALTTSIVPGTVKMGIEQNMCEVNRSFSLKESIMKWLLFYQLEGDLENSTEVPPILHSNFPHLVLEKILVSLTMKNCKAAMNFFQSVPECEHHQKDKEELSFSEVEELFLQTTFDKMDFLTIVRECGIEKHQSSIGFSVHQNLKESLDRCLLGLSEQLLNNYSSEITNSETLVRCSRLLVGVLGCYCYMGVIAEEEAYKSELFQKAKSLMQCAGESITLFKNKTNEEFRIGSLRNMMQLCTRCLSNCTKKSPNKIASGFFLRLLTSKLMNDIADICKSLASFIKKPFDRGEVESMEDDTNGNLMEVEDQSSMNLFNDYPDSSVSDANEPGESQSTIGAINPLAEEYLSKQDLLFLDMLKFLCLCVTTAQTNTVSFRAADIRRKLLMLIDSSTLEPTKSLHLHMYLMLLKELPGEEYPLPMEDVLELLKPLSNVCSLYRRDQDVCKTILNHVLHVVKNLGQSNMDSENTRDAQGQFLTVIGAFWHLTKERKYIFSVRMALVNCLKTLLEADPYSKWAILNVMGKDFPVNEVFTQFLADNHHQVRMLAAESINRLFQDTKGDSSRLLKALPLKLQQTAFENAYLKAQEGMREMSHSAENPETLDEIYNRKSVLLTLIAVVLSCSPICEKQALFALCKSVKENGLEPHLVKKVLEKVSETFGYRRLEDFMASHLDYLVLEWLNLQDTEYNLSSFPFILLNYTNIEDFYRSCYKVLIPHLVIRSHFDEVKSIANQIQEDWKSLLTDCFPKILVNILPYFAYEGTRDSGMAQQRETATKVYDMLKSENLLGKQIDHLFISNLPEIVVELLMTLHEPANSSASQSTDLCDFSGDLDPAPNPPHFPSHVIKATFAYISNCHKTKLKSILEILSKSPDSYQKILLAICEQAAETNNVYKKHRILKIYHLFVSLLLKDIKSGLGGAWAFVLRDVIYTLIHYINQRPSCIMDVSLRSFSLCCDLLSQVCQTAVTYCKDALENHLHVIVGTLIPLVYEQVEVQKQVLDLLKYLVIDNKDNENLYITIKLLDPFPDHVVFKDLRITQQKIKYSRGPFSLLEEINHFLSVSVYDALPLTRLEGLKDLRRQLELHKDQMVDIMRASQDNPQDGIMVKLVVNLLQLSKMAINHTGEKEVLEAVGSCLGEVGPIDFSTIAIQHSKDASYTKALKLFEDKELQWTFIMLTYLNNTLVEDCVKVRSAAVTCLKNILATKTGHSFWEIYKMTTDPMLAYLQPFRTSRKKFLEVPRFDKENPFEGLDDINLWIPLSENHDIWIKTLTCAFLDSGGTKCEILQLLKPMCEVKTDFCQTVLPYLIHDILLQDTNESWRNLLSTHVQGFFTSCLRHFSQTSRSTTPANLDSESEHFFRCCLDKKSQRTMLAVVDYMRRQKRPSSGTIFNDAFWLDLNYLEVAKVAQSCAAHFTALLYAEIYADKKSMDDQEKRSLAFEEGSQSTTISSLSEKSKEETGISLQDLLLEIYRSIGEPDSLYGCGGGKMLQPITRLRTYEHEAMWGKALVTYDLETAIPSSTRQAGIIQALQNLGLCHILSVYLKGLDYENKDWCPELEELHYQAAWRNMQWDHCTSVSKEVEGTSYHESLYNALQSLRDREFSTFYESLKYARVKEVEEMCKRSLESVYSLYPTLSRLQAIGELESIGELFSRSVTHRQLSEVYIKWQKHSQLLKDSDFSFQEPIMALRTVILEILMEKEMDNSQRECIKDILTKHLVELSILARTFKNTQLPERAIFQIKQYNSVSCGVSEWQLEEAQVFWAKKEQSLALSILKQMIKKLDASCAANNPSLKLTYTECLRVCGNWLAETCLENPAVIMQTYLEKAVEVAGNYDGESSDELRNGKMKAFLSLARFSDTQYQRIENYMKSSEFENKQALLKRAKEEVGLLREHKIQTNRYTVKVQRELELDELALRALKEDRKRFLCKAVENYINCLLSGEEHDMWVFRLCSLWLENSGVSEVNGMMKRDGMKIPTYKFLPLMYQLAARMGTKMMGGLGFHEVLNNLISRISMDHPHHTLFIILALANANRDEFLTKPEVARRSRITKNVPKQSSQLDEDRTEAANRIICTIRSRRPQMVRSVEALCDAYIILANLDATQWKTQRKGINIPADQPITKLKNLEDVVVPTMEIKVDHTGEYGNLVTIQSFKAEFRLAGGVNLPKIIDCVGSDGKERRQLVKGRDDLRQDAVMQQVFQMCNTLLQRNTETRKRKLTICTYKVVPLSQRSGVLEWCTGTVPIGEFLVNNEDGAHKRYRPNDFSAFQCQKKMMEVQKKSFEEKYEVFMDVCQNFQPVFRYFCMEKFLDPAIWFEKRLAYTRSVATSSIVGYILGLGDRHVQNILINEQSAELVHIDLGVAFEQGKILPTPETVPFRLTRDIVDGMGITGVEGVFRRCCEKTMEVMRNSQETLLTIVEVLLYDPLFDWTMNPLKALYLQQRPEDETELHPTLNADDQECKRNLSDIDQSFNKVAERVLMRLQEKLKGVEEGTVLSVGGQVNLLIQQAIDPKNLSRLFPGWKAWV

[18] = Apparent permeability across apical to basolateral side in human Caco2 cells; format: ADME, cell-based; settings: Caco-2

SMILES | Vd [1] [L/kg] | Papp A→B [2] [×10⁻⁶ cm/s] | pKa [3] | efflux ratio (in vitro) | IC50 [4] [µM] | solubility thermodynamic at 24 h [5] [µM] | clearance (in vivo [6]) [mL/min/kg] | hepatocyte CLint [7] [µL/min/1e6 cells] | hepatocyte CLint [8] [µL/min/1e6 cells] | bioavailability [9] [%] | half-life (in vivo [10]) [h] | clearance (in vivo [11]) [mL/min/kg] | bioavailability [12] [%] | Vd [13] [L/kg] | logD [14] | IC50 [15] [µM] | half-life (in vivo [16]) [h] | IC50 [17] [µM] | Papp A→B [18] [×10⁻⁶ cm/s]
CO[C@H]1C[C@@H](n2c(=O)n(C)c3cnc4ccc(-c5ccc(OCCCN(C)C)nc5)cc4c32)C1 | 11 | 7.8 | 9.5 | 3 | > 33 | 540 (≈ 249 µg/mL) | 27.6 | 5.1 | 8.7 | 65 | 5 | 19.5 | 50 | 5.7 | 1.6 | > 30 | 5 |  | 
COCc1ccc(-c2cc3c(cc2F)ncc2c3n([C@H]3C[C@@H](OC)C3)c(=O)n2C)cn1 |  | 38 |  | 0.4 | 9 | 37 (≈ 15.6 µg/mL) |  | 4.5 | 8.8 |  |  | 22.5 | > 100 | 0.98 | 2.7 | > 30 | 2.7 | 0.1 | 
CO[C@H]1C[C@@H](n2c(=O)n(C)c3cnc4cc(F)c(-c5ccc(OCCN(C)C)nc5)cc4c32)C1 |  | 16 | 8.5 | 1.6 | > 33 | > 1000 |  | 12 | 8.3 |  |  |  |  |  | 2 | > 30 |  | 0.023 | 
CO[C@H]1C[C@@H](n2c(=O)n(C)c3cnc4ccc(-c5ccc(OCCCN6CCC(O)CC6)nc5)cc4c32)C1 |  |  | 8.4 |  |  | 750 (≈ 388 µg/mL) |  | < 1 |  |  |  |  |  |  | 0.6 | > 30 |  | 27 | 
NC(=O)c1cnc2ccc(-c3cccnc3)cc2c1NC1CCOCC1 |  | 4.8 |  |  |  | > 610 |  |  | < 4 |  |  |  |  |  |  |  |  |  | 15
Cn1c(=O)n(C2CCOCC2)c2c3cc(-c4cccnc4)ccc3ncc21 |  | 30 |  |  | 11 | 17 (≈ 6.13 µg/mL) |  | 9.4 | < 4.9 |  |  |  |  |  | 2.2 |  |  |  | 60
